Reference: patent US20100297145A1, “Apoptosis promoter, cell proliferation inhibitor, prophylactic/therapeutic agent for cancer, screening method for the promoter, inhibitor or agent” (priority 2005, published 2010)

How the values were obtained:
Type in all cases: cell-based, human
DU145/PCA-1 [1] = experiment: Cell growth of PCA-1-overexpressing cell line with EGF stimulation (MTS reagent); conditions: EGF 10 ng/ml, 36 hours, serum-free, pretreatment with ERK inhibitor
Procedure: (§1) The human prostate cancer cell line DU145 (purchased from ATCC) was cultured in RPMI medium (in the presence of 10% serum) and used. The human PCA-1 gene was cleaved out from a PCA-1 vector, and this was inserted into pIRES/Neo, which is a vector that encodes the neomycin resistance gene (hereinafter pIRES/Neo/PCA-1). […] For control, a clone (DU145/Neo) incorporating an empty vector, and cultured under the same conditions, was used.
Experiments were performed using the MTS [(3-(4,5-dimethylthiazol-2-yl)-5-(3-carboxymethoxyphenyl)-2-(4-sulphonyl)-2H-tetrazolium, inner salt] reagent (Promega, Tokyo, Japan) in accordance with the attached protocol.
Cell growth for 36 hours under serum-free conditions was examined.

DU145/PCA-1 [2] = experiment: Paclitaxel-induced apoptosis quantified by flowcytometry
Procedure: as §1
A control cell line (DU145/Neo) and DU145/PCA-1 were stimulated with paclitaxel (100 nM); 48 hours later, apoptosis was quantified using flowcytometry.

DU145 [3] = experiment: WST-1 method, growth of DU145 transfected with siRNA
Procedure: (§2) The human prostate cancer cell line DU145 (purchased from ATCC) was cultured in RPMI1640 medium (in the presence of 10% fetal bovine serum) and used.
(§3) DU145 was transiently transfected with siRNAs against PCA-1 ([…] (SEQ ID NO:4), […] (SEQ ID NO:5), […] (SEQ ID NO:6)) using DharmaFECT 1 (GE Healthcare Bioscience.). Expression suppression and knockdown effects were confirmed by real-time PCR and PCA-1 quantitative ELISA method. Control siRNA ([…] (SEQ ID NO:7)) was purchased from GE Healthcare Bioscience.
Two days after DU145 was transfected with siRNA, the cells were harvested, and 100 μl of the cells were sown to a 96-well plate at 1×10^4/ml. Thereafter, 10 μl of a 1:9 mixture of a 1-methoxy PMS (1-methoxy-5-methylphenazinium.methylsulfate) solution and a WST-1 (2-(4-Iodophenyl)-3-(4-nitrophenyl)-5-(2,4-disulfophenyl)-2H-tetrazolium, monosodium salt) solution was added to each well every 24 hours; 1 hour later, absorbance was measured at 450 nm. As the control wavelength, 630 nm was used. The day of the start of transfection is designated as day 0.

DU145 [4] = experiment: Apoptosis analysis (propidium iodide, flowcytometer) of DU145 transfected with siRNA
Procedure: as §2, §3
After DU145 was transfected with PCA-1 siRNA, the cells were harvested and fixed with ethanol. Thereafter, the cells were stained with propidium iodide, and the ratio of apoptosis cells was analyzed using a flowcytometer.

DU145/PCA-1 [5] = experiment: TRAIL-induced apoptosis analyzed by flowcytometry; conditions: TRAIL 50 ng/ml, 24 hours
Procedure: as §1
TRAIL is drawing attention as a new-generation anticancer agent for prostate cancer, and it has been reported that FLIP acts suppressively on the mechanism therefor.

Molecule: N#CC(=C(/N)Sc1ccccc1N)/C(C#N)=C(\N)Sc1ccccc1N [U0126]
- effect of pretreatment on EGF-stimulated growth increase of DU145/PCA-1 (DU145/PCA-1 [1]): inhibited (cancelled)
- effect on the paclitaxel-induced apoptosis inhibitory effect of PCA-1 (DU145/PCA-1 [2]; DU145/PCA-1, paclitaxel 100 nM, with ERK inhibitor): cancelled

Molecule: CC(=O)O[C@H]1C(=O)[C@@]2(C)[C@H]([C@H](OC(=O)c3ccccc3)[C@]3(O)C[C@H](OC(=O)[C@H](O)[C@@H](NC(=O)c4ccccc4)c4ccccc4)C(C)=C1C3(C)C)[C@]1(OC(C)=O)CO[C@@H]1C[C@@H]2O [paclitaxel]
- paclitaxel-induced apoptosis in DU145/PCA-1 compared with control strain (DU145/Neo) (DU145/PCA-1 [2]; paclitaxel 100 nM, 48 hours): significantly inhibited

Molecule: Control siRNA: Control siRNA (auccgcgcgauaguacgua (SEQ ID NO:7)) purchased from GE Healthcare Bioscience (AUCCGCGCGAUAGUACGUA; listed as RNA, chemistry not given here)
- absorbance relative to the absorbance on day 3 written as 1 (DU145 [3]; DU145, Day 3): 1
- absorbance relative to the absorbance on day 3 written as 1 (DU145 [3]; DU145, Day 4): 1.99
- absorbance relative to the absorbance on day 3 written as 1 (DU145 [3]; DU145, Day 5): 3.98
- absorbance relative to the absorbance on day 3 written as 1 (DU145 [3]; DU145, Day 6): 7.25
- absorbance relative to the absorbance on day 3 written as 1 (DU145 [3]; DU145, Day 7): 11.91
- absorbance relative to the absorbance on day 3 written as 1 (DU145 [3]; DU145, Day 8): 12.90
- growth of DU145 over time (in words) (DU145 [3]; DU145 transfected cells, WST-1): remarkable growth
- ratio of apoptosis cells (DU145 [4]; DU145, Day 2): 0.98%
- ratio of apoptosis cells (DU145 [4]; DU145, Day 3): 1.96%
- ratio of apoptosis cells (DU145 [4]; DU145, Day 4): 5.00%
- ratio of apoptosis cells (DU145 [4]; DU145, Day 5): 1.88%

B1: TRAIL: tumor necrosis factor-related apoptosis-inducing ligand (protein, UniProt P50591 1-281, looked up)
Tumor necrosis factor ligand …: MAMMEVQGGPSLGQTCVLIVIFTVLLQSLCVAVTYVYFTNELKQMQDKYSKSGIACFLKEDDSYWDPNDEESMNSPCWQVKWQLRQLVRKMILRTSEETISTVQEKQQNISPLVRERGPQRVAAHITGTRGRSNTLSSPNSKNEKALGRKINSWESSRSGHSFLSNLHLRNGELVIHEKGFYYIYSQTYFRFQEEIKENTKNDKQMVQYIYKYTSYPDPILLMKSARNSCWSKDAEYGLYSIYQGGIFELKENDRIFVSVTNEHLIDMDHEASFFGAFLVG
- apoptosis induction in DU145/PCA-1 compared with control (DU145/Neo) (DU145/PCA-1 [5]): significantly inhibited
